# Laboratory results reported in patent US12187713B2, “Immunomodulators, compositions and methods thereof” (Betta Pharmaceuticals Co., Ltd, priority 2019, dated 2025).
# Biological target: PD-1/PD-L1 (Homo sapiens (Human), UniProt Q9NZQ7)
# Assay: PD-1/PD-L1 Binding Assay (Alphascreen)
# Conditions: numeric values
# Description: PD-1/PD-L1 Binding Assay (Alphascreen)
# The assays were conducted in a standard black 384-well polystyrene plate with a final volume of 20 μL. Inhibitors were first serially diluted in DMSO and then added to the plate wells before the addition of other reaction components. The final concentration of DMSO in the assay was […]. Add 100 nL/well of compound to the 384 reaction plate (6008280, PerkinElmer) with Echo and centrifuge at 1000 rpm for 1 minute. Add 5 μL/well 4×PD-L1 solutions to the 384 reaction plate, centrifuge at 1000 rpm for 1 minute, and add 5 μL/well 4×PD-1 solutions, centrifuge at 1000 rpm for 1 minute, and incubate at 25° C. for 15 minutes. The concentrations of the compounds were 300, 100, 33.33, 11.11, 3.70, 1.23, 0.41, 0.137, 0.046, 0.015, 0 nM, respectively. Add 10 μL/well 2× Anti-6×His AlphaLISA Acceptor beads and Streptavidin Donor beads solution (PerkinElmer-AL356F) to the above 384 reaction plate, centrifuge at 1000 rpm for 1 minute, and incubate at 25° C. in the dark for 120 minutes. Read the AlphaLISA signal value using the Envision Reader. IC50 determination was performed by fitting the curve of percent control activity versus the log of the inhibitor concentration using the GraphPad Prism 8.0 software.
# Chain of PD-1/PD-L1 (Q9NZQ7 19-238): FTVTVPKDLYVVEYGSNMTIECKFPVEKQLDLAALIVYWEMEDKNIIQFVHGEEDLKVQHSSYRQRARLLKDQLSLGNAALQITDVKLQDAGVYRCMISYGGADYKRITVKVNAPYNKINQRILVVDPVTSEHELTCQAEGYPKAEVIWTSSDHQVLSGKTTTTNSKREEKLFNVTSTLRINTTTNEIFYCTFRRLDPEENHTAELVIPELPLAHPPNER
row,IC50 [nM],SMILES
1,2.4,"CCN(CC)C1CN(Cc2cc3nc(-c4cccc(-c5cccc(-c6nc7cc(CN8CCC[C@H]8C(=O)O)c(OC(F)F)cc7o6)c5C)c4C)oc3cc2OC(F)F)C1 [Example 68, ((2-(3′-(5-((3-(diethylamino)azetidin-1-yl)methyl)-6-(difluoromethoxy)benzo[d]oxazol-2-yl)-2,2′-dimethyl-[1,1′-biphenyl]-3-yl)-6-(difluoromethoxy)benzo[d]oxazol-5-yl)methyl)-L-proline]"
2,0.49,"Cc1c(-c2nc3cc(CN4CC(C(C)(C)O)C4)c(OC(F)F)cc3o2)cccc1-c1cccc(-c2nc3cc(CN4CCC[C@H]4C(=O)O)c(OC(F)F)cc3o2)c1C [Example 69, ((6-(difluoromethoxy)-2-(3′-(6-(difluoromethoxy)-5-((3-(2-hydroxypropan-2-yl)azetidin-1-yl)methyl)benzo[d]oxazol-2-yl)-2,2′-dimethyl-[1,1′-biphenyl]-3-yl)benzo[d]oxazol-5-yl)methyl)-L-proline]"
3,0.37,"Cc1c(-c2nc3cc(CN4CC5CC4C5)c(OC(F)F)cc3o2)cccc1-c1cccc(-c2nc3cc(CN4CCC[C@H]4C(=O)O)c(OC(F)F)cc3o2)c1C [Example 71, ((2-(3′-(5-((2-azabicyclo[2.1.1]hexan-2-yl)methyl)-6-(difluoromethoxy)benzo[d]oxazol-2-yl)-2,2′-dimethyl-[1,1′-biphenyl]-3-yl)-6-(difluoromethoxy)benzo[d]oxazol-5-yl)methyl)-L-proline]"
4,0.42,"Cc1c(-c2nc3cc(CNCC4(CO)CC(F)(F)C4)c(OC(F)F)cc3o2)cccc1-c1cccc(-c2nc3cc(CN4CCC[C@H]4C(=O)O)c(OC(F)F)cc3o2)c1C [Example 73, ((2-(3′-(5-((((3,3-difluoro-1-(hydroxymethyl)cyclobutyl)methyl)amino)methyl)-6-(difluoromethoxy)benzo[d]oxazol-2-yl)-2,2′-dimethyl-[1,1′-biphenyl]-3-yl)-6-(difluoromethoxy)benzo[d]oxazol-5-yl)methyl)-L-proline]"
5,10,"Cc1c(-c2nc3cc(CN4CC5CC(=O)CC4C5)c(OC(F)F)cc3o2)cccc1-c1cccc(-c2nc3cc(CN4CCC[C@H]4C(=O)O)c(OC(F)F)cc3o2)c1C (stereo partly drawn) [Example 75, ((6-(difluoromethoxy)-2-(3′-(6-(difluoromethoxy)-5-((3-oxo-6-azabicyclo [3.2.1]octan-6-yl)methyl)benzo[d]oxazol-2-yl)-2,2′-dimethyl-[1,1′-biphenyl]-3-yl)benzo[d]oxazol-5-yl)methyl)-L-proline]"
6,32,"Cc1c(-c2nc3cc(CN4CC5(C4)CC5(F)F)c(OC(F)F)cc3o2)cccc1-c1cccc(-c2nc3cc(CN4CCC[C@H]4C(=O)O)c(OC(F)F)cc3o2)c1C [Example 76, ((2-(3′-(5-((1,1-difluoro-5-azaspiro[2.3]hexan-5-yl)methyl)-6-(difluoromethoxy)benzo[d]oxazol-2-yl)-2,2′-dimethyl-[1,1′-biphenyl]-3-yl)-6-(difluoromethoxy)benzo[d]oxazol-5-yl)methyl)-L-proline]"
7,1.2,"Cc1c(-c2nc3cc(CN4CCC(C)(CO)C4)c(OC(F)F)cc3o2)cccc1-c1cccc(-c2nc3cc(CN4CCC[C@H]4C(=O)O)c(OC(F)F)cc3o2)c1C (stereo partly drawn) [Example 77, ((6-(difluoromethoxy)-2-(3′-(6-(difluoromethoxy)-5-((3-(hydroxymethyl)-3-methylpyrrolidin-1-yl)methyl)benzo[d]oxazol-2-yl)-2,2′-dimethyl-[1,1′-biphenyl]-3-yl)benzo[d]oxazol-5-yl)methyl)-L-proline]"
8,11,"Cc1c(-c2nc3cc(CN4CC[C@H](C(=O)O)C4)c(OC(F)F)cc3o2)cccc1-c1cccc(-c2nc3cc(CN4CC(C)(C)C4)c(OC(F)F)cc3o2)c1C [Example 86, (S)-1-((6-(difluoromethoxy)-2-(3′-(6-(difluoromethoxy)-5-((3,3-dimethylazetidin-1-yl)methyl)benzo[d]oxazol-2-yl)-2,2′-dimethyl-[1,1′-biphenyl]-3-yl)benzo[d]oxazol-5-yl)methyl)pyrrolidine-3-carboxylic acid]"
9,0.88,"Cc1c(-c2nc3cc(CN4CCC[C@@H]4C(=O)O)c(OC(F)F)cc3o2)cccc1-c1cccc(-c2nc3cc(CN4CCC(C)C4)cc(C(F)(F)F)c3o2)c1C (stereo partly drawn) [Example 90, ((6-(difluoromethoxy)-2-(2,2′-dimethyl-3′-(5-((3-methylpyrrolidin-1-yl)methyl)-7-(trifluoromethyl)benzo [d]oxazol-2-yl)-[1,1′-biphenyl]-3-yl)benzo[d]oxazol-5-yl)methyl)-D-proline]"
10,1.9,"Cc1c(-c2nc3cc(CN4CCC[C@H]4C(=O)O)c(OC(F)F)cc3o2)cccc1-c1cccc(-c2nc3cc(CN4CCC4)cc(C)c3o2)c1C [Example 94, ((2-(3′-(5-(azetidin-1-ylmethyl)-7-methylbenzo[d]oxazol-2-yl)-2,2′-dimethyl-[1,1′-biphenyl]-3-yl)-6-(difluoromethoxy)benzo[d]oxazol-5-yl)methyl)-L-proline]"

# Same assay, conditions: range symbols
row,IC50 [nM],SMILES
1,0.1 to 5,"Cc1c(-c2nc3cc(CN4CCC4C)c(OC(F)F)cc3o2)cccc1-c1cccc(-c2nc3cc(CN4CCC[C@H]4C(=O)O)c(OC(F)F)cc3o2)c1C (stereo partly drawn) [Example 60, ((6-(difluoromethoxy)-2-(3′-(6-(difluoromethoxy)-5-((2-methylazetidin-1-yl)methyl)benzo[d]oxazol-2-yl)-2,2′-dimethyl-[1,1′-biphenyl]-3-yl)benzo[d]oxazol-5-yl)methyl)-L-proline]"
2,0.1 to 5,"Cc1c(-c2nc3cc(CN4CC(C)(CO)C4)c(OC(F)F)cc3o2)cccc1-c1cccc(-c2nc3cc(CN4CCC[C@H]4C(=O)O)c(OC(F)F)cc3o2)c1C [Example 78, ((6-(difluoromethoxy)-2-(3′-(6-(difluoromethoxy)-5-((3-(hydroxymethyl)-3-methylazetidin-1-yl)methyl)benzo[d]oxazol-2-yl)-2,2′-dimethyl-[1,1′-biphenyl]-3-yl)benzo[d]oxazol-5-yl)methyl)-L-proline]"
3,0.1 to 5,"Cc1c(-c2nc3cc(CN4CC(C)(C#N)C4)c(OC(F)F)cc3o2)cccc1-c1cccc(-c2nc3cc(CN4CCC[C@H]4C(=O)O)c(OC(F)F)cc3o2)c1C [Example 79, ((2-(3′-(5-((3-cyano-3-methylazetidin-1-yl)methyl)-6-(difluoromethoxy)benzo[d]oxazol-2-yl)-2,2′-dimethyl-[1,1′-biphenyl]-3-yl)-6-(difluoromethoxy)benzo[d]oxazol-5-yl)methyl)-L-proline]"
4,0.1 to 5,"Cc1c(-c2nc3cc(CN4CC(=CC#N)C4)c(OC(F)F)cc3o2)cccc1-c1cccc(-c2nc3cc(CN4CCC[C@H]4C(=O)O)c(OC(F)F)cc3o2)c1C [Example 82, ((2-(3′-(5-((3-(cyanomethylene)azetidin-1-yl)methyl)-6-(difluoromethoxy)benzo[d]oxazol-2-yl)-2,2′-dimethyl-[1,1′-biphenyl]-3-yl)-6-(difluoromethoxy)benzo[d]oxazol-5-yl)methyl)-L-proline]"
5,5 to 50,"CC1(C)CN(Cc2cc3nc(-c4cccc(-c5cccc(-c6nc7cc(CN8CCC[C@H]8C(=O)O)c(OC(F)F)cc7o6)c5C#N)c4C#N)oc3cc2OC(F)F)C1 [Example 83, ((2-(2,2′-dicyano-3′-(6-(difluoromethoxy)-5-((3,3-dimethylazetidin-1-yl)methyl)benzo[d]oxazol-2-yl)-[1,1′-biphenyl]-3-yl)-6-(difluoromethoxy)benzo[d]oxazol-5-yl)methyl)-L-proline]"
6,0.1 to 5,"Cc1c(-c2nc3cc(CN4CCC[C@H]4C(=O)O)c(OC(F)F)cc3o2)cccc1-c1cccc(-c2nc3cc(CN4CC(C)C(C)C4)cc(C(F)(F)F)c3o2)c1C (stereo partly drawn) [Example 84, ((6-(difluoromethoxy)-2-(3′-(5-((3,4-dimethylpyrrolidin-1-yl)methyl)-7-(trifluoromethyl)benzo[d]oxazol-2-yl)-2,2′-dimethyl-[1,1′-biphenyl]-3-yl)benzo[d]oxazol-5-yl)methyl)-L-proline]"
7,0.1 to 5,"Cc1c(-c2nc3cc(CN4CCC[C@@H]4C(=O)O)c(OC(F)F)cc3o2)cccc1-c1cccc(-c2nc3cc(CN4CC(C)(C)C4)c(OC(F)F)cc3o2)c1C#N [Example 87, ((2-(2′-cyano-3′-(6-(difluoromethoxy)-5-((3,3-dimethylazetidin-1-yl)methyl)benzo[d]oxazol-2-yl)-2-methyl-[1,1′-biphenyl]-3-yl)-6-(difluoromethoxy)benzo[d]oxazol-5-yl)methyl)-D-proline]"
8,0.1 to 5,"Cc1c(-c2nc3cc(CN4CC[C@@H](C(=O)O)C4)c(OC(F)F)cc3o2)cccc1-c1cccc(-c2nc3cc(CN4CCC(C)C4)cc(C(F)(F)F)c3o2)c1C (stereo partly drawn) [Example 91, (3R)-1-((6-(difluoromethoxy)-2-(2,2′-dimethyl-3′-(5-((3-methylpyrrolidin-1-yl)methyl)-7-(trifluoromethyl)benzo [d]oxazol-2-yl)-[1,1′-biphenyl]-3-yl)benzo[d]oxazol-5-yl)methyl)pyrrolidine-3-carboxylic acid]"
9,0.1 to 5,"Cc1c(-c2nc3cc(CN4CC[C@H](C(=O)O)C4)c(OC(F)F)cc3o2)cccc1-c1cccc(-c2nc3cc(CN4CCC(C)C4)cc(C(F)(F)F)c3o2)c1C (stereo partly drawn) [Example 92, (3S)-1-((6-(difluoromethoxy)-2-(2,2′-dimethyl-3′-(5-((3-methylpyrrolidin-1-yl)methyl)-7-(trifluoromethyl)benzo [d]oxazol-2-yl)-[1,1′-biphenyl]-3-yl)benzo[d]oxazol-5-yl)methyl)pyrrolidine-3-carboxylic acid]"
